Test results taken from the supplement of paper PMC11208160.

Experiment: recombinant UMI read abundance after kanamycin selection (control-corrected) (log10(CPM+1)); higher = more efficient recombination; extreme values may be limits of the assay; sequences stand for … in AGTGCAGAGAAAATCGGCCAGTTTTCTCTGCCTGCAGTCCGCATGCCGTGGGACCCCTTGGGTTCTAACCTGTTGCCTAGATTTATGCAGCGGACTGCCTTTCTCCCAAAGTGATAAACCGG…AGGTTGGTTTCACT; site = the 11-nt donor
Outline: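 In a pooled Escherichia coli screen for the IS621 bridge recombinase, donor and donor-binding-loop pairs were each placed with a 12-nt UMI on a plasmid bearing a promoterless kanamycin gene. This library was co-electroporated with a target plasmid encoding a fixed target and T7-inducible recombinase, and cells were plated either on IPTG (0.07 mM) plus kanamycin or without selection, in two replicates each. Recombinant UMIs were PCR-amplified across the donor–target junction and sequenced, and counts were converted to CPM, averaged over replicates, scaled by control-derived factors and reported as log10(CPM+1).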
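Note: IS621 bridge recombinase in Escherichia coli cells against a fixed T5 target plasmid.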

## ATCCATACATGGACCGGTTTTCCCGGTAATCCGTATTTGAC (site ATCTATACTGT)
  recombinant UMI read abundance (log10): 0

## ATCCCCTCATGGACCGGTTTTCCCGGTAATCCGTATTTGGA (site ATCCCCTCTTC)
  recombinant UMI read abundance (log10): 1.95

## ATCCCGGCATGGACCGGTTTTCCCGGTAATCCGTATTTGAG (site CGAAGCCCTAG)
  recombinant UMI read abundance (log10): 0

## ATCCGACCATGGACCGGTTTTCCCGGTAATCCGTATTTGTC (site ATCCGACCTGA)
  recombinant UMI read abundance (log10): 0

## ATCCTTTCATGGACCGGTTTTCCCGGTAATCCGTATTTGAC (site AACCTTTCTGT)
  recombinant UMI read abundance (log10): 0

## ATCCTTTCATGGACCGGTTTTCCCGGTAATCCGTATTTGAC (site ACCCTTTCTGT)
  recombinant UMI read abundance (log10): 0

## ATCCTTTCATGGACCGGTTTTCCCGGTAATCCGTATTTGAC (site AGCCTTTCTGT)
  recombinant UMI read abundance (log10): 0

## ATCCTTTCATGGACCGGTTTTCCCGGTAATCCGTATTTGAC (site ATCCTTTCTGT)
  recombinant UMI read abundance (log10): 0

## ATCGAATCATGGACCGGTTTTCCCGGTAATCCGTATTTGAA (site ATCGAATCTTT)
  recombinant UMI read abundance (log10): 2.58

## ATCGCCTCATGGACCGGTTTTCCCGGTAATCCGTATTTGGG (site ATCGCCTCTCC)
  recombinant UMI read abundance (log10): 0.29

## ATCGCGTCATGGACCGGTTTTCCCGGTAATCCGTATTTGAA (site ATCGCGTCTTT)
  recombinant UMI read abundance (log10): 2.01

## ATCGTGCCATGGACCGGTTTTCCCGGTAATCCGTATTTGTT (site ATCGTGCCTAA)
  recombinant UMI read abundance (log10): 0.0076

## ATCTAAACATGGACCGGTTTTCCCGGTAATCCGTATTTGAC (site ATCTAAACTGT)
  recombinant UMI read abundance (log10): 2.72

## ATCTAAACATGGACCGGTTTTCCCGGTAATCCGTATTTGAC (site ATCTACACTGT)
  recombinant UMI read abundance (log10): 0.25

## ATCTAAACATGGACCGGTTTTCCCGGTAATCCGTATTTGAC (site ATCTAGACTGT)
  recombinant UMI read abundance (log10): 0

## ATCTAAACATGGACCGGTTTTCCCGGTAATCCGTATTTGAC (site ATCTATACTGT)
  recombinant UMI read abundance (log10): 0.00453

## ATCTACACATGGACCGGTTTTCCCGGTAATCCGTATTTGAC (site ATCTAAACTGT)
  recombinant UMI read abundance (log10): 1.21

## ATCTACACATGGACCGGTTTTCCCGGTAATCCGTATTTGAC (site ATCTACACTGT)
  recombinant UMI read abundance (log10): 2.83

## ATCTACACATGGACCGGTTTTCCCGGTAATCCGTATTTGAC (site ATCTAGACTGT)
  recombinant UMI read abundance (log10): 0

## ATCTACACATGGACCGGTTTTCCCGGTAATCCGTATTTGAC (site ATCTATACTGT)
  recombinant UMI read abundance (log10): 0.824

## ATCTAGACATGGACCGGTTTTCCCGGTAATCCGTATTTGAG (site ATCTAGACTCT)
  recombinant UMI read abundance (log10): 1.31

## ATCTAGGCATGGACCGGTTTTCCCGGTAATCCGTATTTGGC (site ATATAGGCTGC)
  recombinant UMI read abundance (log10): 0

## ATCTAGGCATGGACCGGTTTTCCCGGTAATCCGTATTTGGC (site ATCTAGGCTGC)
  recombinant UMI read abundance (log10): 0

## ATCTAGGCATGGACCGGTTTTCCCGGTAATCCGTATTTGGC (site ATGTAGGCTGC)
  recombinant UMI read abundance (log10): 0

## ATCTAGGCATGGACCGGTTTTCCCGGTAATCCGTATTTGGC (site ATTTAGGCTGC)
  recombinant UMI read abundance (log10): 0

## ATCTATACATGGACCGGTTTTCCCGGTAATCCGTATTTGAG (site ATCTATACTAT)
  recombinant UMI read abundance (log10): 0.478

## ATCTATACATGGACCGGTTTTCCCGGTAATCCGTATTTGAG (site ATCTATACTCT)
  recombinant UMI read abundance (log10): 1.31

## ATCTATACATGGACCGGTTTTCCCGGTAATCCGTATTTGAG (site ATCTATACTGT)
  recombinant UMI read abundance (log10): 0

## ATCTATACATGGACCGGTTTTCCCGGTAATCCGTATTTGAG (site ATCTATACTTT)
  recombinant UMI read abundance (log10): 0.0268

## ATCTATACATGGACCGGTTTTCCCGGTAATCCGTATTTGGC (site ATCTATACTGA)
  recombinant UMI read abundance (log10): 1.09

## ATCTATACATGGACCGGTTTTCCCGGTAATCCGTATTTGGC (site ATCTATACTGC)
  recombinant UMI read abundance (log10): 2.23

## ATCTATACATGGACCGGTTTTCCCGGTAATCCGTATTTGGC (site ATCTATACTGG)
  recombinant UMI read abundance (log10): 0

## ATCTATACATGGACCGGTTTTCCCGGTAATCCGTATTTGGC (site ATCTATACTGT)
  recombinant UMI read abundance (log10): 2.09

## ATCTGTACATGGACCGGTTTTCCCGGTAATCCGTATTTGAC (site ATCTATACTGT)
  recombinant UMI read abundance (log10): 0

## ATCTGTACATGGACCGGTTTTCCCGGTAATCCGTATTTGAC (site ATCTCTACTGT)
  recombinant UMI read abundance (log10): 0

## ATCTGTACATGGACCGGTTTTCCCGGTAATCCGTATTTGAC (site ATCTGTACTGT)
  recombinant UMI read abundance (log10): 1.31

## ATCTGTACATGGACCGGTTTTCCCGGTAATCCGTATTTGAC (site ATCTTTACTGT)
  recombinant UMI read abundance (log10): 0

## ATCTGTCCATGGACCGGTTTTCCCGGTAATCCGTATTTGAT (site ATCTGTCCTAT)
  recombinant UMI read abundance (log10): 0.0326

## ATGAAGGCATGGACCGGTTTTCCCGGTAATCCGTATTTGCA (site AGGAAGACTTG)
  recombinant UMI read abundance (log10): 0.763

## ATGAAGGCATGGACCGGTTTTCCCGGTAATCCGTATTTGCA (site ATGAAGGCTTG)
  recombinant UMI read abundance (log10): 2.91

## ATGACACCATGGACCGGTTTTCCCGGTAATCCGTATTTGGT (site ATGACACCTAC)
  recombinant UMI read abundance (log10): 0.0397

## ATGATCCCATGGACCGGTTTTCCCGGTAATCCGTATTTGCC (site ATGATCCCTGG)
  recombinant UMI read abundance (log10): 0

## ATGCACGCATGGACCGGTTTTCCCGGTAATCCGTATTTGGG (site AAGCACGCTCC)
  recombinant UMI read abundance (log10): 0.017

## ATGCACGCATGGACCGGTTTTCCCGGTAATCCGTATTTGGG (site ACGCACGCTCC)
  recombinant UMI read abundance (log10): 0.0179

## ATGCACGCATGGACCGGTTTTCCCGGTAATCCGTATTTGGG (site AGGCACGCTCC)
  recombinant UMI read abundance (log10): 0.0274

## ATGCACGCATGGACCGGTTTTCCCGGTAATCCGTATTTGGG (site ATGCACGCTCC)
  recombinant UMI read abundance (log10): 0.239

## ATGCAGCCATGGACCGGTTTTCCCGGTAATCCGTATTTGAG (site ATGCAGCCTCT)
  recombinant UMI read abundance (log10): 0.00247

## ATGCCCGCATGGACCGGTTTTCCCGGTAATCCGTATTTGCA (site ATGCCCGCTTG)
  recombinant UMI read abundance (log10): 2.01

## ATGCCGACATGGACCGGTTTTCCCGGTAATCCGTATTTGCA (site ATGCCGACTTG)
  recombinant UMI read abundance (log10): 1.91

## ATGCGAGCATGGACCGGTTTTCCCGGTAATCCGTATTTGCT (site ATGCGAGCTAG)
  recombinant UMI read abundance (log10): 2.5

## ATGCTTGCATGGACCGGTTTTCCCGGTAATCCGTATTTGCT (site ATGCTTGCTAG)
  recombinant UMI read abundance (log10): 0.679

## ATGGAAACATGGACCGGTTTTCCCGGTAATCCGTATTTGCA (site ATGGAAACTTG)
  recombinant UMI read abundance (log10): 2.32

## ATGGAAACATGGACCGGTTTTCCCGGTAATCCGTATTTGCA (site CTGGAAACTTG)
  recombinant UMI read abundance (log10): 1.6

## ATGGAAACATGGACCGGTTTTCCCGGTAATCCGTATTTGCA (site GTGGAAACTTG)
  recombinant UMI read abundance (log10): 0

## ATGGAAACATGGACCGGTTTTCCCGGTAATCCGTATTTGCA (site TTGGAAACTTG)
  recombinant UMI read abundance (log10): 0.684

## ATGGCATCATGGACCGGTTTTCCCGGTAATCCGTATTTGCG (site ATGGCATCTCG)
  recombinant UMI read abundance (log10): 2.06

## ATGGCATCATGGACCGGTTTTCCCGGTAATCCGTATTTGCT (site ATGGCATCTAG)
  recombinant UMI read abundance (log10): 1.83
